In patent US20250171438A1 (Agios Pharmaceuticals, Inc., priority 2022, published 2025):

Molecular target: T1, human PAH with the R408W mutation (Homo sapiens, UniProt P00439, R408W)
T1 construct: expressed in transfected cells
T1 sequence (P00439 1-452 R408W): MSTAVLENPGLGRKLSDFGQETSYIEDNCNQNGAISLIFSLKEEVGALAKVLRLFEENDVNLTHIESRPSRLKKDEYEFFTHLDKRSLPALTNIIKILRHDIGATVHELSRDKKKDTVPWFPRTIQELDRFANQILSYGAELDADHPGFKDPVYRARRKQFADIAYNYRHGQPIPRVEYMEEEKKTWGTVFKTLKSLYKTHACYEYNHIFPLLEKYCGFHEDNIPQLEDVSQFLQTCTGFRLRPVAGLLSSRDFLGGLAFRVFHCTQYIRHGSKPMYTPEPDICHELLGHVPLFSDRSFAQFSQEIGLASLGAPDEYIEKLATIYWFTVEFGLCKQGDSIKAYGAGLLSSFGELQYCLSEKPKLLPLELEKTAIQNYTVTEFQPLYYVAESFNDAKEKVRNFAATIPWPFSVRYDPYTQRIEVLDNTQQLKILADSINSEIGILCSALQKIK
Test: Cell Based Phenylalanine Flux Assay
Settings: A375 cells expressing human R408W PAH; 24 hrs compound incubation; 13C-Tyrosine by LC-MS; average where tested multiple times; read-out: AC50

| AC50 [nM] | Structure (SMILES) |
| --- | --- |
| < 500 | Cc1nn(C)cc1-c1nnc(C(=O)N2CCc3[nH]cnc3[C@H]2c2nc3ccccc3s2)o1 [Example 1925] |
| 1000 to 5000 | Cc1nn(C)cc1-c1nnc(C(=O)N2CCc3[nH]cnc3[C@@H]2c2nc3ccccc3s2)o1 [Example 1926, (R)-(4-(benzo[d]thiazol-2-yl)-6,7-dihydro-1H-imidazo[4,5-c]pyridin-5(4H)-yl)(5-(1,3-dimethyl-1H-pyrazol-4-yl)-1,3,4-oxadiazol-2-yl)methanone] |
| 500 to 1000 | CC(C)(C)n1ncc(C(=O)N2CCc3[nH]cnc3[C@H]2c2nc3c(F)cccc3s2)c1Cl [Example 1931] |
| 1000 to 5000 | CC(C)(C)n1ncc(C(=O)N2CCc3[nH]cnc3[C@@H]2c2nc3c(F)cccc3s2)c1Cl [Example 1932, (R)-(1-(tert-butyl)-5-chloro-1H-pyrazol-4-yl)(4-(4-fluorobenzo[d]thiazol-2-yl)-6,7-dihydro-1H-imidazo[4,5-c]pyridin-5(4H)-yl)methanone] |
| 1000 to 5000 | CC(C)(O)c1nc(Cl)c(C(=O)N2CCc3[nH]cnc3[C@@H]2c2nc3c(F)cccc3s2)o1 [Example 1936, (R)-(4-chloro-2-(2-hydroxypropan-2-yl)oxazol-5-yl)(4-(4-fluorobenzo[d]thiazol-2-yl)-6,7-dihydro-1H-imidazo[4,5-c]pyridin-5(4H)-yl)methanone] |
| 1000 to 5000 | Cn1nc(Cl)nc1C(=O)N1CCc2[nH]cnc2[C@@H]1c1nc2ccccc2s1 [Example 1938, (R)-(4-(benzo[d]thiazol-2-yl)-6,7-dihydro-1H-imidazo[4,5-c]pyridin-5(4H)-yl)(3-chloro-1-methyl-1H-1,2,4-triazol-5-yl)methanone] |
| 500 to 1000 | O=C(c1nnc(-c2cnn(S(=O)(=O)C3CC3)c2)o1)N1CCc2[nH]cnc2[C@H]1c1nc2ccccc2s1 [Example 1939] |
| 1000 to 5000 | O=C(c1nnc(-c2cnn(S(=O)(=O)C3CC3)c2)o1)N1CCc2[nH]cnc2[C@@H]1c1nc2ccccc2s1 [Example 1940, (R)-(4-(benzo[d]thiazol-2-yl)-6,7-dihydro-1H-imidazo[4,5-c]pyridin-5(4H)-yl)(5-(1-(cyclopropylsulfonyl)-1H-pyrazol-4-yl)-1,3,4-oxadiazol-2-yl)methanone] |
| < 500 | Cn1nccc1-c1nnc(C(=O)N2CCc3[nH]cnc3[C@H]2c2nc3ccccc3s2)o1 [Example 1945] |
| < 500 | Cc1cnn(C)c1-c1nnc(C(=O)N2CCc3[nH]cnc3[C@H]2c2nc3ccccc3s2)o1 [Example 1947] |
| 1000 to 5000 | Cc1cnn(C)c1-c1nnc(C(=O)N2CCc3[nH]cnc3[C@@H]2c2nc3ccccc3s2)o1 [Example 1948, (R)-(4-(benzo[d]thiazol-2-yl)-6,7-dihydro-1H-imidazo[4,5-c]pyridin-5(4H)-yl)(5-(1,4-dimethyl-1H-pyrazol-5-yl)-1,3,4-oxadiazol-2-yl)methanone] |
| 500 to 1000 | Cc1nc(C2(O)CC2)oc1C(=O)N1CCc2[nH]cnc2[C@H]1c1nc2c(F)cccc2s1 [Example 1949, (S)-(4-(4-fluorobenzo[d]thiazol-2-yl)-6,7-dihydro-1H-imidazo[4,5-c]pyridin-5(4H)-yl)(2-(1-hydroxycyclopropyl)-4-methyloxazol-5-yl)methanone] |
| 500 to 1000 | CC(C)n1ncc(C(=O)N2CCc3[nH]cnc3[C@H]2c2nc3c(F)cccc3s2)c1Cl [Example 1951] |
| 500 to 1000 | CC(C)n1ncc(C(=O)N2CCc3[nH]cnc3[C@H]2c2nc3c(F)cccc3s2)c1Br [Example 1953] |
| < 500 | Cn1nc(Cl)nc1C(=O)N1CCc2[nH]cnc2[C@H]1c1nc2c(F)cccc2s1 [Example 1955] |

The remaining lines, values behind:

| Structure (SMILES) | AC50 [nM] |
| --- | --- |
| Cn1nc(Cl)cc1C(=O)N1CCc2[nH]cnc2[C@H]1c1nc2ccccc2s1 [Example 1923] | < 500 |
| Cn1nc(Cl)cc1C(=O)N1CCc2[nH]cnc2[C@@H]1c1nc2ccccc2s1 [Example 1924, (R)-(4-(benzo[d]thiazol-2-yl)-6,7-dihydro-1H-imidazo[4,5-c]pyridin-5(4H)-yl)(3-chloro-1-methyl-1H-pyrazol-5-yl)methanone] | 1000 to 5000 |
| Cn1cc(-c2nnc(C(=O)N3CCc4[nH]cnc4[C@H]3c3nc4c(F)cccc4s3)o2)c(C(F)(F)F)n1 [Example 1927, (S)-(4-(4-fluorobenzo[d]thiazol-2-yl)-6,7-dihydro-1H-imidazo[4,5-c]pyridin-5(4H)-yl)(5-(1-methyl-3-(trifluoromethyl)-1H-pyrazol-4-yl)-1,3,4-oxadiazol-2-yl)methanone] | < 500 |
| Cn1cc(-c2nnc(C(=O)N3CCc4[nH]cnc4[C@@H]3c3nc4c(F)cccc4s3)o2)c(C(F)(F)F)n1 [Example 1928, (R)-(4-(4-fluorobenzo[d]thiazol-2-yl)-6,7-dihydro-1H-imidazo[4,5-c]pyridin-5(4H)-yl)(5-(1-methyl-3-(trifluoromethyl)-1H-pyrazol-4-yl)-1,3,4-oxadiazol-2-yl)methanone] | 1000 to 5000 |
| Cc1nc([C@@H](C)O)oc1C(=O)N1CCc2[nH]cnc2[C@H]1c1nc2c(F)cccc2s1 [Example 1929, ((S)-4-(4-fluorobenzo[d]thiazol-2-yl)-6,7-dihydro-1H-imidazo[4,5-c]pyridin-5(4H)-yl)(2-((R)-1-hydroxyethyl)-4-methyloxazol-5-yl)methanone] | 500 to 1000 |
| Cc1nc([C@@H](C)O)oc1C(=O)N1CCc2[nH]cnc2[C@@H]1c1nc2c(F)cccc2s1 [Example 1930, ((R)-4-(4-fluorobenzo[d]thiazol-2-yl)-6,7-dihydro-1H-imidazo[4,5-c]pyridin-5(4H)-yl)(2-((R)-1-hydroxyethyl)-4-methyloxazol-5-yl)methanone] | 1000 to 5000 |
| Cc1c(C(=O)N2CCc3[nH]cnc3[C@H]2c2nc3c(F)cccc3s2)cnn1-c1ccccn1 [Example 1933, (S)-(4-(4-fluorobenzo[d]thiazol-2-yl)-6,7-dihydro-1H-imidazo[4,5-c]pyridin-5(4H)-yl)(5-methyl-1-(pyridin-2-yl)-1H-pyrazol-4-yl)methanone] | 1000 to 5000 |
| Cc1c(C(=O)N2CCc3[nH]cnc3[C@@H]2c2nc3c(F)cccc3s2)cnn1-c1ccccn1 [Example 1934, (R)-(4-(4-fluorobenzo[d]thiazol-2-yl)-6,7-dihydro-1H-imidazo[4,5-c]pyridin-5(4H)-yl)(5-methyl-1-(pyridin-2-yl)-1H-pyrazol-4-yl)methanone] | > 5000 |
| CC(C)(O)c1nc(Cl)c(C(=O)N2CCc3[nH]cnc3[C@H]2c2nc3c(F)cccc3s2)o1 [Example 1935, (S)-(4-chloro-2-(2-hydroxypropan-2-yl)oxazol-5-yl)(4-(4-fluorobenzo[d]thiazol-2-yl)-6,7-dihydro-1H-imidazo[4,5-c]pyridin-5(4H)-yl)methanone] | < 500 |
| Cn1nc(Cl)nc1C(=O)N1CCc2[nH]cnc2[C@H]1c1nc2ccccc2s1 [Example 1937] | 500 to 1000 |
| Cc1n[nH]cc1-c1nnc(C(=O)N2CCc3[nH]cnc3[C@H]2c2nc3ccccc3s2)o1 [Example 1941] | < 500 |
| Cc1n[nH]cc1-c1nnc(C(=O)N2CCc3[nH]cnc3[C@@H]2c2nc3ccccc3s2)o1 [Example 1942, (R)-(4-(benzo[d]thiazol-2-yl)-6,7-dihydro-1H-imidazo[4,5-c]pyridin-5(4H)-yl)(5-(3-methyl-1H-pyrazol-4-yl)-1,3,4-oxadiazol-2-yl)methanone] | 1000 to 5000 |
| Cc1cc(-c2nnc(C(=O)N3CCc4[nH]cnc4[C@@H]3c3nc4ccccc4s3)o2)nn1C [Example 1943, (R)-(4-(benzo[d]thiazol-2-yl)-6,7-dihydro-1H-imidazo[4,5-c]pyridin-5(4H)-yl)(5-(1,5-dimethyl-1H-pyrazol-3-yl)-1,3,4-oxadiazol-2-yl)methanone] | 1000 to 5000 |
| Cc1cc(-c2nnc(C(=O)N3CCc4[nH]cnc4[C@H]3c3nc4ccccc4s3)o2)nn1C [Example 1944] | 500 to 1000 |
| Cn1nccc1-c1nnc(C(=O)N2CCc3[nH]cnc3[C@@H]2c2nc3ccccc3s2)o1 [Example 1946, (R)-(4-(benzo[d]thiazol-2-yl)-6,7-dihydro-1H-imidazo[4,5-c]pyridin-5(4H)-yl)(5-(1-methyl-1H-pyrazol-5-yl)-1,3,4-oxadiazol-2-yl)methanone] | 1000 to 5000 |
| Cc1nc(C2(O)CC2)oc1C(=O)N1CCc2[nH]cnc2[C@@H]1c1nc2c(F)cccc2s1 [Example 1950, (R)-(4-(4-fluorobenzo[d]thiazol-2-yl)-6,7-dihydro-1H-imidazo[4,5-c]pyridin-5(4H)-yl)(2-(1-hydroxycyclopropyl)-4-methyloxazol-5-yl)methanone] | > 5000 |
| CC(C)n1ncc(C(=O)N2CCc3[nH]cnc3[C@@H]2c2nc3c(F)cccc3s2)c1Cl [Example 1952, (R)-(5-chloro-1-isopropyl-1H-pyrazol-4-yl)(4-(4-fluorobenzo[d]thiazol-2-yl)-6,7-dihydro-1H-imidazo[4,5-c]pyridin-5(4H)-yl)methanone] | 1000 to 5000 |
| CC(C)n1ncc(C(=O)N2CCc3[nH]cnc3[C@@H]2c2nc3c(F)cccc3s2)c1Br [Example 1954, (R)-(5-bromo-1-isopropyl-1H-pyrazol-4-yl)(4-(4-fluorobenzo[d]thiazol-2-yl)-6,7-dihydro-1H-imidazo[4,5-c]pyridin-5(4H)-yl)methanone] | 1000 to 5000 |
| Cn1nc(Cl)nc1C(=O)N1CCc2[nH]cnc2[C@@H]1c1nc2c(F)cccc2s1 [Example 1956, (R)-(3-chloro-1-methyl-1H-1,2,4-triazol-5-yl)(4-(4-fluorobenzo[d]thiazol-2-yl)-6,7-dihydro-1H-imidazo[4,5-c]pyridin-5(4H)-yl)methanone] | 1000 to 5000 |
